Columns and labels:
[1] = tested on: Jurkat human leukemia T cells; assay: Inhibition of Jurkat human leukemia T cell proliferation (MTT reduction); type: cell-based; conditions: 100 μg/ml sequence, 48 h, 2.5×10^5 cells/ml
Outline: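 Read-out is MTT absorbance at 570 nm after 48 h. Sequences of 2 to 45 bases (A, C, G, T) tested at 100 μg/ml against untreated control, with 2.5×10^5 Jurkat cells/ml held at 37° C under 5% CO2.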

[2] = tested on: THP-1 human acute monocytic leukemia cells; assay: Cytokine production by THP-1 cells (ELISA); type: cell-based; conditions: THP-1, 1×10^6 cells, 100 μg/ml, 48 h; for ↑ IL-12 (fold increase treated vs control cells): p70 complex and free p40
Outline: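 Read-out is fold increase in supernatant cytokine versus control cells, measured by ELISA (IL-12 ELISA counts p70 complex plus free p40). Unless noted, sequences were tested at 100 μg/ml on 1×10^6 cells, incubated 48 h, 37° C, 5% CO2.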

IMC tumor = conditions: premixed with IMC cells and injected into CDF-1 mice; cited from earlier work
[3] = tested on: Jurkat human leukemia T cells; assay: Cell cycle stage in Jurkat cells (propidium iodide flow cytometry); type: cell-based; conditions: Jurkat, 24 h, 100 μg/ml
Outline: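 Phase distribution (G0/G1, early, mid and late S, G2/M) came from flow cytometry with doublet discrimination on propidium iodide-stained nuclei. Jurkat cells were given 24 h exposure to 2–45-base oligonucleotides, or at 1×10^6 cells/ml to single 6-base GT or AC strands heated 10 min at 65 °C or 1:1 hybridized duplex.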

[4] = tested on: MCF-7 human breast cancer cells; assay: Inhibition of MCF-7 cell proliferation (MTT); type: cell-based; conditions: 100 μg/ml, 48 h, 5×10^5 cells/ml
Outline: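 Cells at 2.5×10^5 cells/ml (GT 3- and 6-base series at 5×10^5 cells/ml) treated with 100 μg/ml of 2-45-base oligonucleotide sequences versus untreated control for 48 h at 37 °C, 5% CO2. Proliferation read by MTT reduction at 570 nm.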

telomerase = target: T1, telomerase (Homo sapiens, UniProt O14746); assay: PCR-telomeric repeat amplification protocol (TRAP) on Jurkat T cell extracts; type: biochemical; conditions: concentrations between 1 and 100 μg/ml, extracts from 2×10^5 Jurkat T cells
T1 construct: extracts from 2×10^5 Jurkat T cells were assayed using the PCR-telomeric repeat amplification protocol (TRAP); endogenous in cells; host or cells: Jurkat T cells (cell extract)
T1 sequence (O14746 whole entry): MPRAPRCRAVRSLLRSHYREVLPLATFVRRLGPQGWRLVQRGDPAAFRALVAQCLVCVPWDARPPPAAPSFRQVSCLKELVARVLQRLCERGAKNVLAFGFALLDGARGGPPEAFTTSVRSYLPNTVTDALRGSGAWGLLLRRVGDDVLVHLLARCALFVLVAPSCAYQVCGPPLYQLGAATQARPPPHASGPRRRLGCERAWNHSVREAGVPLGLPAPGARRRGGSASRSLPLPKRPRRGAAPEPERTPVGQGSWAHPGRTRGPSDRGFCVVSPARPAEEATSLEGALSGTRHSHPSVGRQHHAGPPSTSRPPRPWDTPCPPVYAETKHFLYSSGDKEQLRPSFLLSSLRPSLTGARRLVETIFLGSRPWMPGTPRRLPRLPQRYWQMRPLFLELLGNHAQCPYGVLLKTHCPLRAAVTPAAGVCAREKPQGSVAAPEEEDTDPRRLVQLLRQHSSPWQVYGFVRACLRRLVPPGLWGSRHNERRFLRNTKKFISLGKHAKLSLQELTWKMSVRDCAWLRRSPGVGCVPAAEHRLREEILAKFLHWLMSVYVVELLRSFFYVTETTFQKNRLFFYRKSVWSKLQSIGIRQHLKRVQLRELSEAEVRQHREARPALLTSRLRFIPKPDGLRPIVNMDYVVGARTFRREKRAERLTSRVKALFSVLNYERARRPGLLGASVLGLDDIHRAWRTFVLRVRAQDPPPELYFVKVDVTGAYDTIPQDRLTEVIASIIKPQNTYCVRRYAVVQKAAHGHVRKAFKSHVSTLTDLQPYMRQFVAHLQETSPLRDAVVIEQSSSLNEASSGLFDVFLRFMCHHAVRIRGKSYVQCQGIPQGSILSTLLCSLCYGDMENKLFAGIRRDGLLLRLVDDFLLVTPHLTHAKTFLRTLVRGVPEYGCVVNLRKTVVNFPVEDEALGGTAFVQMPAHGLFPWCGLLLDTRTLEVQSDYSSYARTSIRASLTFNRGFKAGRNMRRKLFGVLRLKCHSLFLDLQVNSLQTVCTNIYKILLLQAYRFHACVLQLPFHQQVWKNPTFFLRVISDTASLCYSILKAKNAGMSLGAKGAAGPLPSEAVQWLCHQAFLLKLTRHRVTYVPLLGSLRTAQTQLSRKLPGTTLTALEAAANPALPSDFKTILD
Procedure: To determine telomerase activity, extracts from 2×10^5 Jurkat T cells were assayed using the PCR-telomeric repeat amplification protocol (TRAP) (Roche, Laval, Québec, Canada).

[5] = tested on: LNCaP human prostate cancer cells; assay: Inhibition of LNCaP cell proliferation (MTT); type: cell-based; conditions: 100 μg/ml, 48 h, 5×10^5 cells/ml
Procedure: (§1) Cells were seeded in 6 (1 ml/well), 24 (0.5 ml/well) or 96 (0.1 ml/well) well flat-bottom microplates and were maintained at 37° C. in a 5% CO2 atmosphere. Unless stated otherwise, 2.5×10^5 cells/ml were incubated with 0 μg/ml (control) and 100 μg/ml (treated) of 2 to 45 base sequences containing A, C, G and T for 48 h.
(§2) Cell proliferation was measured using dimethylthiazol-diphenyl-tetrazolium (MTT) reduction (Mosman et al. J. Immunol. Methods 65:55, 1983). MTT was measured at a wavelength of 570 nm using a multiplate spectrophotometer reader (ELX800, Bio-TEK Instruments Inc., Winooski, Vt.).
LNCaP prostate cancer cells are a TGF-beta 1 receptor negative, […], metastatic human solid tumor model. LNCaP cells (5×10^5 cells/ml) were incubated with 6 base GT sequences (Table 9).

[6] = tested on: EL-4 murine T lymphoma cells; assay: Inhibition of EL-4 cell proliferation (MTT); type: cell-based; conditions: 100 μg/ml, 48 h
Procedure: as §1, §2
EL-4 murine lymphoma T cells are a suspension tumor model. EL-4 murine lymphoma T cells were incubated with 6, 18, 27 and 33 base GT sequences and with a 15 base ACG sequence (Table 18).

[7] = tested on: SK-OV-3 human ovarian cancer cells; assay: Inhibition of SK-OV-3 cell proliferation (MTT); type: cell-based; conditions: 100 μg/ml, 48 h, 5×10^5 cells/ml
Procedure: as §1, §2
SK-OV-3 ovarian cancer cells are a p53 mutated, p21/waf-1/Cip deleted, p15^ink4B deleted, p16^Ink4 deleted, metastatichuman solid tumor model. SK-OV-3 cells (5×10^5 cells/ml) were incubated with 2, 6 and 18 base GT sequences (Table 12).

[8] = tested on: OVCAR-3 human ovarian cancer cells; assay: Inhibition of OVCAR-3 cell proliferation (MTT); type: cell-based; conditions: 100 μg/ml, 48 h, 5×10^5 cells/ml
Procedure: as §1, §2
OVCAR-3 ovarian cancer cells are a p53 mutated, p21/waf-1/Cip deleted, metastatic human solid tumor model. OVCAR-3 cells (5×10^5 cells/ml) were incubated with 2, 6 and 18 base GT sequences and with a 6 base AGT sequence (Table 11).

[9] = tested on: MCF-7 human breast cancer cells; assay: Cell cycle stage in MCF-7 cells (propidium iodide flow cytometry); type: cell-based; conditions: MCF-7, 5×10^5 cells/ml, 24 h
Procedure: Cell cycle stage was determined using a […]™ PLUS DNA commercial kit (Becton Dickinson). Briefly, nuclei from cells were obtained by dissolving the cell membrane in a nonionic detergent, eliminating the cell cytoskeleton and nuclear proteins with trypsin, digesting the cellular RNA with RNase and stabilizing the nuclear chromatin with spermine. Propidium iodide was added to the cell nuclei and their fluorescence was analyzed in a flow cytometer equipped with electronic doublet discrimination capability (FACSCalibur, Becton Dickinson, San Jose, Calif.). Accumulation of cells in G0/G1, early S (SE), mid S (SM), late S (SL) or G2/M phases of the cell cycle was analyzed using MODFIT LT software (Verity Software House Inc., Topsham, Mass.).
Exponentially growing Jurkat human leukemia T cells (Table 28) and MCF-7 human breast cancer cells (5×10^5 cells/ml) (Table 29) were incubated for 24 h with 2, 6, 15, 18, 27 and 45 base sequences containing A, C, G and T. The cells were collected and centrifuged and cell cycle stage was determined.

Burkitt lymphoma cells = conditions: Mata et al. 1997; cited from earlier work

**Q.** Which results are given for “AAAAGAAGTGGGGTGCCCCCACGATCACCAACGATGGTGTGTCCA (unmodified DNA) [BCG A-2, reference compound]”?
**A.** % INHIBITION of Jurkat human leukemia T cell proliferation [1]: 19%; ↑ IL-6 (fold increase treated vs control cells) [2]: 3.9x; ↑ IL-12 (fold increase treated vs control cells) [2]: 1.6x; inhibition of IMC tumor growth (IMC tumor): 88%

**Q.** Which “% INHIBITION of Jurkat human leukemia T cell proliferation” value [1] does the source give for “ACCGATGACGTCGCCGGTGACGGCAACACGACGGCCACCGTGCTG (unmodified DNA) [BCG A-4, reference compound]” here?
**A.** 9%

**Q.** What about the “↑ IL-6 (fold increase treated vs control cells)” value [2] of the same sequence?
**A.** 1.8x

**Q.** And the “↑ IL-12 (fold increase treated vs control cells)” value [2]?
**A.** 0.9x

**Q.** What about the “inhibition of IMC tumor growth” value (IMC tumor) of the same sequence?
**A.** 37%

**Q.** Which “% of cells in phase: G0/G1” value [3] does the source give for GGGTGG [SEQ ID NO:25 phosphorothioate] here?
**A.** 34.9%

**Q.** And the “% of cells in phase: G2/M” value [3]?
**A.** 24.7%

**Q.** What about the “% of cells in phase: SE” value [3] of the same sequence?
**A.** 14.8%

**Q.** What about the “% of cells in phase: SL” value [3] of the same sequence?
**A.** 10.6%

**Q.** What about the “% of cells in phase: SM” value [3] of the same sequence?
**A.** 15.0%

**Q.** And the “Arrest (cell cycle)” value [3]?
**A.** None

**Q.** What about the “% INHIBITION of MCF-7 human breast cancer cell proliferation” value [4] of the same sequence?
**A.** 12%

**Q.** And the “% INHIBITION of Jurkat human leukemia T cell proliferation” value [1]?
**A.** 0%

**Q.** And the anti-telomerase activity (telomerase)?
**A.** Neither GT SEQ ID NO:25-phosphorothioate nor GT SEQ ID NO:49-phosphodiester showed any anti-telomerase actvity

**Q.** And the “↑ IL-12 (fold increase treated vs control cells)” value [2]?
**A.** 0.0x

**Q.** And the “↑ IL-12 (fold increase treated vs control cells)” value ([2]; listed as GsGsGsTsGsGs)?
**A.** 0 x

**Q.** And the “% INHIBITION of LNCaP human prostate cancer cell proliferation” value [5]?
**A.** −8%

**Q.** And the “% INHIBITION of EL-4 murine T lymphoma cell proliferation” value [6]?
**A.** −8%

**Q.** Which “% of cells in phase: G0/G1” value [3] does the source give for “TTAGGG (phosphodiester backbone) [SEQ ID NO:49, reference compound]” here?
**A.** 24.6%

**Q.** What about the “% of cells in phase: G2/M” value [3] of the same sequence?
**A.** 12.8%

**Q.** And the “% of cells in phase: SE” value [3]?
**A.** 37.2%

**Q.** What about the “% of cells in phase: SL” value [3] of the same sequence?
**A.** 5.9%

**Q.** What about the “% of cells in phase: SM” value [3] of the same sequence?
**A.** 19.5%

**Q.** What about the “Arrest (cell cycle)” value [3] of the same sequence?
**A.** Mid SM

**Q.** And the “% INHIBITION of SK-OV-3 human ovarian cancer cell proliferation” value [7]?
**A.** 11%

**Q.** And the “% INHIBITION of OVCAR-3 human ovarian cancer cell proliferation” value [8]?
**A.** 15%

**Q.** What about the “% INHIBITION of Jurkat human leukemia T cell proliferation” value [1] of the same sequence?
**A.** 45%

**Q.** What about the anti-telomerase activity (telomerase; listed as SEQ ID NO:49-phosphodiester) of the same sequence?
**A.** Neither GT SEQ ID NO:25-phosphorothioate nor GT SEQ ID NO:49-phosphodiester showed any anti-telomerase actvity

**Q.** And the “↑ IL-6 (fold increase treated vs control cells)” value [2]?
**A.** 6.7x

**Q.** And the “↑ IL-12 (fold increase treated vs control cells)” value [2]?
**A.** 2.0x

**Q.** And the “% cells in phase: G0/G1” value [9]?
**A.** 20.0%

**Q.** What about the “% cells in phase: G2/M” value [9] of the same sequence?
**A.** 15.0%

**Q.** What about the “% cells in phase: SE” value [9] of the same sequence?
**A.** 18.6%

**Q.** And the “% cells in phase: SL” value [9]?
**A.** 20.7%

**Q.** What about the “% cells in phase: SM” value [9] of the same sequence?
**A.** 25.7%

**Q.** What about the “Arrest (cell cycle)” value [9] of the same sequence?
**A.** Mid SM

**Q.** With “TTAGGG (phosphorothioate backbone) [SEQ ID NO:49-phosphorothioate]” as the sequence, how does the “induction of apoptosis in Burkitt lymphoma cells” value (Burkitt lymphoma cells) read?
**A.** induce apoptosis in Burkitt lymphoma cells

**Q.** And the “inhibition of telomerase activity” value (Burkitt lymphoma cells)?
**A.** inhibit telomerase activity

From patent US20070213291A1, “Therapeutically useful synthetic oligonucleotides” (priority 1999, published 2007)
